Assay results as given in article PMC11204507, “Mechanistic Insights into the Neurotoxicity of 2,5-Dimethoxyphenethylamines (2C) and Corresponding N-(2-methoxybenzyl)phenethylamine (NBOMe) Drugs” (Journal of Xenobiotics, 2024).

How the values were obtained:
[1] = system: differentiated SH-SY5Y cells; experiment: Total glutathione (tGSH) levels, DTNB-GSH recycling assay; type: cell-based, human; conditions: control 100.0%
Source text: Glutathione has a critical role in cellular physiology, playing multiple essential roles in maintaining cellular health and function, including antioxidant defense, detoxification, and cellular signaling. The 5,5′-dithiobis(2-nitrobenzoic acid) (DTNB)-GSH recycling assay was used to measure total GSH (tGSH), which includes the reduced (GSH) and oxidized (GSSG) forms of glutathione. The assay relies on the reaction of GSH with DTNB, producing the yellow-colored 5-thio-2-nitrobenzoic acid (TNB). Thus, the TNB generated is directly proportional to the amount of GSH present in the sample [31].
Thus, the SH-SY5Y cells were seeded onto 6-well plates (25,000 cells/cm^2) following the previously described seeding and differentiation protocol. On the day of the experiment, the cells were exposed to different concentrations of the tested drugs (EC20 and EC50) for 24 h (37 °C, 5% CO2). At the end of the incubation period, the cells were centrifuged (5 min, 250 g, 4 °C). For the analysis of extracellular GSH levels, the supernatants were collected, and proteins precipitated with 30% HClO4 for at least 30 min (4 °C). For the analysis of intracellular GSH levels, after collecting the supernatants, the cells were treated with 5% HClO4 for at least 30 min (4 °C). Subsequently, the acidic samples were collected from the plates and centrifuged (5 min, 16,000× g, 4 °C), and the supernatants were stored until further analysis (−80 °C). To assess protein content, the pellets were resuspended in 1M NaOH, maintained at 4 °C overnight, and stored until further analysis (−20 °C). A Bio-Rad DC™ protein assay kit (Bio-Rad Laboratories, Hercules, CA, USA) was used to analyze protein content, in accordance with the manufacturer’s guidelines.
Before the tGSH quantification, the acidic samples were diluted (1:2) with 5% HClO4, and the diluted samples/standards were neutralized with an ice-cold KHCO3 solution (1:1) and centrifuged (5 min, 16,000× g, 4 °C).
Then, 100 µL of supernatant from each sample/standard was transferred into a 96-well plate and 65 µL of an extemporaneous reagent solution (0.68 mM NADPH and 3.96 mM DTNB prepared in a 7.5 pH phosphate buffer) was added to each well, and the plates were incubated for 15 min at 30 °C. After 15 min, 40 μL of a 10 U/mL glutathione reductase solution was added to each well and the formation of 5-thio-2-nitrobenzoic acid (TNB) was monitored every 10 s for 3 min (kinetic mode) at 415 nm in a multi-well plate reader (PowerWaveX, BioTek Instruments, Winooski, VT, USA).
The GSH levels were standardized to protein content. The results are presented as a percentage relative to the control cells (0 µM). A minimum of 6 independent experiments were conducted, in duplicate.
Glutamate/cysteine ligase (GCL), also recognized as gamma-glutamylcysteine synthetase (γ-GCS), is a key enzyme in the first step of glutathione biosynthesis, as it catalyzes the reaction between glutamate and cysteine to produce γ-glutamylcysteine. […] The SH-SY5Y cells were seeded onto 6-well plates (25,000 cells/cm^2) following the previously described seeding and differentiation protocol. On the day of the experiment, the cells were incubated with BSO (100 µM) for 24 h (37 °C, 5% CO2) and the quantification of GSH intracellular levels was achieved according to the previously described method in Section 2.11.

[2] = system: differentiated SH-SY5Y cells; experiment: Intracellular ATP levels, luciferin-luciferase bioluminescence; type: cell-based, human
Experimental: Adenosine triphosphate (ATP) is often considered the primary energy currency of cells, being essential for several cellular activities, such as active transport, metabolism, and cell signaling, among many others. The intracellular ATP levels were measured using a bioluminescence method, consisting of the reaction between luciferin and ATP in the presence of luciferase, where the resulting light intensity is directly proportional to the amount of ATP present in the cells.
Thus, the SH-SY5Y cells were seeded onto 6-well plates (25,000 cells/cm^2) following the previously described seeding and differentiation protocol. On the day of the experiment, the cells were exposed to different concentrations of the tested drugs (EC20 and EC50) for 24 h (37 °C, 5% CO2). At the end of the incubation period, the cells were centrifuged (5 min, 250× g, 4 °C), the supernatants were rejected, and proteins were precipitated with 5% HClO4 for at least 30 min (4 °C). Subsequently, the acidic samples were collected from the plates, centrifuged (5 min, 16,000× g, 4 °C), and the supernatants were stored until further ATP analysis (−80 °C). To assess protein content, the pellets were resuspended in 1 M NaOH, maintained at 4 °C overnight, and stored until further analysis (−20 °C). A Bio-Rad DC™ protein assay kit (Bio-Rad Laboratories, Hercules, CA, USA) was used to analyze protein content, in accordance with the manufacturer’s guidelines.
Before the ATP quantification, the acidic samples were diluted (1:5) with 5% HClO4, and the diluted samples/standards were neutralized with an ice-cold KHCO3 solution (1:1) and centrifuged (16,000× g, 5 min, 4 °C). Then, 75 µL of each sample/standard supernatant was transferred into a white 96-well plate, 75 µL of a luciferin (300 µM)-luciferase (3,000,000 U/mL) solution (10–90%, respectively) was added, and bioluminescence (560 nm, 28 °C) was immediately measured in a multi-well plate reader (PowerWaveX, BioTek Instruments, Winooski, VT, USA).
ATP levels were standardized to protein content. The results are presented as a percentage relative to the control cells (0 µM). A minimum of 6 independent experiments were conducted in duplicate.

Row | SMILES | intracellular tGSH levels, % of control cells ([1]; drug at its EC20, 24 h) [%] | intracellular tGSH levels, % of control cells ([1]; drug at its EC50, 24 h) [%] | decrease of intracellular ATP levels relative to control cells ([2]; drug at its EC20, 24 h) [%] | decrease of intracellular ATP levels relative to control cells ([2]; drug at its EC50, 24 h) [%]
1 | CCSc1cc(OC)c(CCN)cc1OC.Cl [2C-T-2, 2-(4-(ethylthio)-2,5-dimethoxyphenyl)ethan-1-aminium chloride] | 87.0 | 80.0 | 18.1 | 24.8
2 | COc1cc(SC(C)C)c(OC)cc1CCN.Cl [2C-T-4, 2-(4-(isopropylthio)-2,5-dimethoxyphenyl)ethan-1-aminium chloride] | 81.4 | 75.8 | 17.8 | 28.7
3 | CCCSc1cc(OC)c(CCN)cc1OC.Cl [2C-T-7, 2-(2,5-dimethoxy-4-(propylthio)phenyl)ethan-1-aminium chloride] | 84.2 | 82.4 | 16.9 | 24.1
4 | CCSc1cc(OC)c(CCNCc2ccccc2OC)cc1OC.Cl [25T2-NBOMe, 2-(4-(ethylthio)-2,5-dimethoxyphenyl)-N-(2-methoxybenzyl)ethan-1-aminium chloride] | 54.4 | 49.2 | 16.0 | 23.5
5 | COc1cc(SC(C)C)c(OC)cc1CCNCc1ccccc1OC.Cl [25T4-NBOMe, 2-(4-(isopropylthio)-2,5-dimethoxyphenyl)-N-(2-methoxybenzyl)ethan-1-aminium chloride] | 71.2 | 60.3 | 14.6 | 21.8
6 | CCCSc1cc(OC)c(CCNCc2ccccc2OC)cc1OC.Cl [25T7-NBOMe, 2-(2,5-dimethoxy-4-(propylthio)phenyl)-N-(2-methoxybenzyl)ethan-1-aminium chloride] | 72.2 | 52.0 | 12.0 | 21.4
